Legend:
Format in all cases: functional, cell-based
[1] = tested on: A549; test: Cytotoxicity against human A549 cells after 48 hrs by MTT assay; conditions: A549, 48 h
[2] = tested on: SMMC-7721; test: Cytotoxicity against human SMMC7721 cells after 48 hrs by MTT assay; conditions: SMMC-7721, 48 h
[3] = tested on: HL-60; test: Cytotoxicity against human HL60 cells after 48 hrs by MTT assay; conditions: HL-60, 48 h
[4] = tested on: SW480; test: Cytotoxicity against human SW480 cells after 48 hrs by MTT assay; conditions: SW480, 48 h
[5] = tested on: MCF7; test: Cytotoxicity against human MCF7 cells after 48 hrs by MTT assay; conditions: MCF7, 48 h

| Compound | IC50 [1] [µM] | IC50 [2] [µM] | IC50 [3] [µM] | IC50 [4] [µM] | IC50 [5] [µM] |
| --- | --- | --- | --- | --- | --- |
| COc1ccc2c(-c3nc(O)cc4c3[nH]c3ccccc34)ccnc2c1 [TRIGONOSTEMINE F] | > 40 | > 40 | > 40 | > 40 | > 40 |
| COc1ccc2c(c1)[nH]c1c(-c3ccnc4ccccc34)nccc12 [TRIGONOSTEMONINE C] | 23.1 | 15.5 | 13.4 | > 40 | > 40 |
| COc1ccc2c3c([nH]c2c1)-c1nc2ccccc2c(=O)n1CC3 | > 40 | > 40 | > 40 | > 40 | > 40 |
| COc1ccc2c(C(=O)c3nccc4c3[nH]c3ccccc34)c(O)[nH]c2c1 [TRIGONOSTEMINE D] | > 40 | > 40 | > 40 | > 40 | 13.8 |
| COc1ccc2c(C3=NCCc4c3[nH]c3ccccc43)ccnc2c1 [TRIGONOSTEMONINE E] | > 40 | > 40 | > 40 | > 40 | > 40 |
| COC(=O)c1nccc2c1[nH]c1cc(OC)ccc12 [HARMIC ACID METHYL ESTER] | > 40 | > 40 | > 40 | > 40 | > 40 |
| COc1ccc2c(c1)[nH]c1c(-c3ccnc4ccccc34)nc(O)cc12 [TRIGONOSTEMINE E] | 24.3 | 23.5 | 18.8 | 39.1 | 14.4 |
| COc1ccc2c(c1)[nH]c1c(C(C)=O)nccc12 [ARENARINE C] | > 40 | > 40 | > 40 | > 40 | > 40 |
| O=C1NCCc2c1[nH]c1ccccc21 | > 40 | > 40 | > 40 | > 40 | > 40 |
| COc1ccc2c(-c3nccc4c3[nH]c3ccccc34)ccnc2c1 [TRIGONOSTEMONINE D] | > 40 | > 40 | > 40 | > 40 | > 40 |
| COc1ccc2c(c1)[nH]c1c(C(=O)c3c[nH]c4ccccc34)nccc12 [TRIGONOSTEMINE A] | 23.9 | 22.4 | 13.4 | 4.86 | 5.3 |
| COc1ccc2c(=O)n3c(nc2c1)-c1[nH]c2ccccc2c1CC3 | > 40 | > 40 | > 40 | > 40 | > 40 |
| COc1ccc2c(C(=O)c3nccc4c3[nH]c3cc(OC)ccc34)c[nH]c2c1 [TRIGONOSTEMINE B] | 8.67 | 4.78 | > 40 | 3.55 | 2.98 |
| COc1ccc2c(c1)[nH]c1c(C(=O)c3c(O)[nH]c4ccccc34)nccc12 [TRIGONOSTEMINE C] | 18.5 | 16 | > 40 | 17.2 | 16.1 |
